Source: the supplement of paper PMC10307832

Each cell line was assayed with CC1=CC(=CC=C1)NC2=NC(=CS2)C3=CC=NC=C3 + CS(=O)(=O)CCNCc1ccc(-c2ccc3ncnc(Nc4ccc(OCc5cccc(F)c5)c(Cl)c4)c3c2)o1 [Lapatinib] (partner 2 µM) (assay: relative viability (nuclei count vs DMSO), 5 days (fraction); higher = more cells survive). Settings: first compound 8 µM.
Summary of the method: (§1)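 Each reported value is a median over duplicate plates. It expresses relative viability: treated-well nuclei count divided by vehicle-well nuclei count. Lung cancer cell lines in 1536-well plates were dosed by pin tool a day after seeding, alone with one drug or with a fixed anchor-drug dose plus five library-drug doses (not always all listed) in √10 steps, and nuclei were counted after 5 days.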

| Cell Line | relative viability |
| --- | --- |
| EKVX | 0.171 |
| LC-2-ad | 0.788 |

Each cell line was assayed with CC1=CC(=CC=C1)NC2=NC(=CS2)C3=CC=NC=C3 + C[C@@H](Oc1cc(-c2cnn(C3CCNCC3)c2)cnc1N)c1c(Cl)ccc(F)c1Cl [Crizotinib] (partner 1 µM) in the same assay as above. Settings: first compound 0.08 µM.
Summary of the method: as §1

| Cell Line | relative viability |
| --- | --- |
| LXF-289 | 0.775 |
| BEN | 1.11 |
| HARA | 0.804 |
| HCC-78 | 0.324 |
| NCI-H2023 | 0.603 |
| A-427 | 0.851 |
| NCI-H460 | 0.753 |
| NCI-H727 | 0.621 |
| NCI-H1755 | 0.86 |
| NCI-H520 | 0.741 |
| NCI-H2405 | 0.684 |
| SW 1573 | 0.671 |
| 201T | 1.01 |
| NCI-H1975 | 0.819 |
| HCC-827 | 0.945 |
| NCI-H2347 | 0.544 |
| NCI-H1355 | 1.02 |

| Cell Line | relative viability |
| --- | --- |
| NCI-H650 | 0.683 |
| CAL-12T | 0.547 |
| NCI-H1666 | 0.722 |
| EPLC-272H | 0.854 |
| NCI-H23 | 0.417 |
| NCI-H1915 | 0.84 |
| NCI-H1437 | 0.938 |
| NCI-H322M | 0.846 |
| NCI-H1563 | 0.958 |
| NCI-H1792 | 0.99 |
| NCI-H2085 | 0.64 |
| HCC-15 | 0.826 |
| NCI-H1944 | 1.08 |
| PC-3 [JPC-3] | 0.875 |
| EKVX | 0.907 |
| LC-2-ad | 0.45 |

Same assay, conditions: first compound 0.253 µM

| Cell Line | relative viability |
| --- | --- |
| LXF-289 | 0.785 |
| BEN | 0.948 |
| HARA | 1 |
| HCC-78 | 0.312 |
| NCI-H2023 | 0.525 |
| A-427 | 0.944 |
| NCI-H460 | 0.827 |
| NCI-H727 | 0.737 |
| NCI-H1755 | 0.815 |
| NCI-H520 | 0.9 |
| NCI-H2405 | 0.774 |
| SW 1573 | 0.77 |
| 201T | 0.993 |
| NCI-H1975 | 0.737 |
| HCC-827 | 0.91 |
| NCI-H2347 | 0.688 |

| Cell Line | relative viability |
| --- | --- |
| NCI-H1355 | 0.781 |
| NCI-H650 | 0.724 |
| CAL-12T | 0.634 |
| NCI-H1666 | 0.567 |
| NCI-H23 | 0.469 |
| NCI-H1915 | 0.784 |
| NCI-H1437 | 1.03 |
| NCI-H322M | 0.808 |
| NCI-H1563 | 0.916 |
| NCI-H1792 | 0.767 |
| NCI-H2085 | 0.891 |
| HCC-15 | 0.807 |
| NCI-H1944 | 0.98 |
| PC-3 [JPC-3] | 0.913 |
| EKVX | 0.893 |
| LC-2-ad | 0.419 |

Same assay, conditions: first compound 0.8 µM

| Cell Line | relative viability |
| --- | --- |
| LXF-289 | 0.827 |
| BEN | 0.879 |
| HARA | 0.994 |
| HCC-78 | 0.311 |
| LCLC-97TM1 | 0.744 |
| NCI-H2023 | 0.507 |
| A-427 | 0.751 |
| NCI-H460 | 0.913 |
| NCI-H727 | 0.922 |
| NCI-H1755 | 0.803 |
| NCI-H520 | 0.81 |
| NCI-H2405 | 0.615 |
| SW 1573 | 0.864 |
| 201T | 0.955 |
| NCI-H1975 | 0.862 |
| HCC-827 | 0.854 |
| NCI-H2347 | 0.468 |

| Cell Line | relative viability |
| --- | --- |
| NCI-H1355 | 0.705 |
| NCI-H650 | 0.615 |
| CAL-12T | 0.612 |
| NCI-H1666 | 0.526 |
| EPLC-272H | 0.877 |
| NCI-H23 | 0.474 |
| NCI-H1915 | 0.838 |
| NCI-H1437 | 0.91 |
| NCI-H322M | 0.775 |
| NCI-H1563 | 0.887 |
| NCI-H1792 | 0.886 |
| NCI-H2085 | 0.918 |
| HCC-15 | 0.777 |
| NCI-H1944 | 0.973 |
| PC-3 [JPC-3] | 0.852 |
| EKVX | 0.795 |
| LC-2-ad | 0.394 |

Same assay, conditions: first compound 2.53 µM

| Cell Line | relative viability |
| --- | --- |
| LXF-289 | 0.836 |
| BEN | 0.779 |
| HARA | 0.998 |
| HCC-78 | 0.333 |
| LCLC-97TM1 | 0.366 |
| NCI-H2023 | 0.758 |
| NCI-H460 | 1 |
| NCI-H727 | 0.759 |
| NCI-H1755 | 0.729 |
| NCI-H520 | 0.839 |
| NCI-H2405 | 0.874 |
| SW 1573 | 1.01 |
| 201T | 1.06 |
| NCI-H1975 | 0.758 |
| HCC-827 | 0.89 |
| NCI-H2347 | 0.789 |

| Cell Line | relative viability |
| --- | --- |
| NCI-H1355 | 0.701 |
| CAL-12T | 0.62 |
| NCI-H1666 | 0.567 |
| NCI-H23 | 0.531 |
| NCI-H1915 | 0.87 |
| NCI-H1437 | 1.06 |
| NCI-H322M | 0.859 |
| NCI-H1563 | 0.909 |
| NCI-H1792 | 0.815 |
| NCI-H2085 | 0.877 |
| HCC-15 | 0.833 |
| NCI-H1944 | 1.01 |
| PC-3 [JPC-3] | 0.904 |
| EKVX | 0.801 |
| LC-2-ad | 0.397 |

Same assay, conditions: first compound 8 µM

| Cell Line | relative viability |
| --- | --- |
| LXF-289 | 0.751 |
| BEN | 0.76 |
| HARA | 0.986 |
| HCC-78 | 0.346 |
| LCLC-97TM1 | 0.42 |
| NCI-H2023 | 0.37 |
| A-427 | 0.692 |
| NCI-H460 | 0.811 |
| NCI-H727 | 0.575 |
| NCI-H1755 | 0.522 |
| NCI-H520 | 0.939 |
| NCI-H2405 | 0.808 |
| SW 1573 | 0.783 |
| 201T | 0.869 |
| NCI-H1975 | 0.722 |
| HCC-827 | 0.856 |
| NCI-H2347 | 0.777 |
| NCI-H1355 | 0.61 |
| NCI-H650 | 0.914 |
| CAL-12T | 0.604 |
| NCI-H1666 | 0.386 |
| EPLC-272H | 0.885 |
| NCI-H23 | 0.526 |
| NCI-H1915 | 0.8 |
| NCI-H1437 | 0.926 |
| NCI-H322M | 0.834 |
| NCI-H1563 | 0.86 |
| NCI-H1792 | 0.947 |
| NCI-H2085 | 0.627 |
| HCC-15 | 0.79 |
